A word on the pIC50: it is the IC50 on a negative log10 scale, so that one unit is a factor of ten. Read a low pIC50 as a high IC50. The pEC50 is −log10 of the EC50, conventionally taken in molar units.

From patent US20130029942A1, “COMPOUNDS AND THERAPEUTICAL USES THEREOF” (Myrexis, Inc., priority 2003, published 2013) come the findings set out here.

pEC50, pIC50: −log10 of the molar value. Where a name gives a salt, the structure may show the parent alone. Read-outs that look alike come from different tables or passages of the source.

The subject of experiment [1] is P388 murine leukemia cell line. In words: P388 cytotoxicity (ATP-Lite, 72 hours). In kind it is cell-based. As to conditions: Mus musculus, P388, 72 hours. As to the method:
A P388 murine leukemia cell line was obtained from NCI, Frederick, Md. P388 cells were cultured in RPMI-1640 supplemented with 10% fetal bovine serum, 2 mM Glutamax, 1 mM sodium pyruvate, 0.1 mM non-essential amino acids and 10 mM HEPES. Cells were grown at 37° C. in a humidified 5% CO2 atmosphere. Exponentially growing P388 cells were plated at 5,000 cells/well in a 96-well flat-bottomed microtiter plate (Corning, Costar #3595). […] Cellular viability was determined 72 hours later by measuring intracellular ATP with ATP-Lite assay system. The effect of compounds on cell viability was calculated by comparing the ATP levels of cells exposed to test compound with those of cells exposed to DMSO. […] Data was analyzed by Prism software (GraphPad; San Diego, Calif.) by fitting it to a sigmoidal dose response curve.

For experiment [2], the system named is T-47D cells. The experiment can be described thus: Caspase cascade activation / induction of apoptosis in T-47D cells (fluorogenic N-(Ac-DEVD)-N'-ethoxycarbonyl-R110 substrate). In kind it is cell-based, human. As to conditions: T-47D; for pEC50: Homo sapiens, T47D.
Setting [3] is: 48 hr, read-out: T-47D (48 hr) EC50.
Where [4] appears, read: 24 hr, read-out: T-47D (24 hr) EC50.

Take `COc1ccc(N(C)c2nc(CNCCCO)nc3ccccc23)cc1` [Example 256, 3-({4-[(4-Methoxy-phenyl)-methyl-amino]-quinazolin-2-ylmethyl}-amino)-propan-1-ol]: in experiment [1], the pIC50 was 5.74. On to `CNc1nc(N(C)c2ccc(OC)c(OC)c2)c2ccccc2n1` [Example 167, N^4-(3,4-Dimethoxy-phenyl)-N^2,N^4-dimethyl-quinazoline-2,4-diamine], for which, in experiment [1], the pIC50 is 7.82. This pIC50 lies 2.08 log units higher than the previous one. Regarding `COC(=O)CN(C)c1nc(N(C)c2ccc(OC)cc2)c2ccccc2n1` [Example 187, ({4-[(4-Methoxy-phenyl)-methyl-amino]-quinazolin-2-yl}-methyl-amino)-acetic acid methyl ester], the negative-log IC50 (pIC50) in experiment [1] is 6.96. Consider `COc1ccc(N(C)c2nc(CN)nc3ccc(F)cc23)cc1` [Example 205, (2-Aminomethyl-6-fluoro-quinazolin-4-yl)-(4-methoxy-phenyl)-methyl-amine], for which the pIC50 in experiment [1] is 7.72. Against the preceding molecule, the pIC50 is 0.76 log units higher. As to `CCOc1ccc(N(C)c2nc(CN)nc3ccccc23)cc1` [Example 211, (2-Aminomethyl-quinazolin-4-yl)-(4-ethoxy-phenyl)-methyl-amine], the pIC50 in experiment [1] is 7.82.

Take `COc1ccc(N(C)c2nncc3cc(F)ccc23)cc1` [Example 196, (6-Fluoro-phthalazin-1-yl)-(4-methoxy-phenyl)-methyl-amine]: the pIC50 in experiment [1] was 6.48.

Molecule `COc1cccc(CN(C)c2nc(Cl)nc3ccccc23)c1` [Example 179, (2-Chloro-quinazolin-4-yl)-(3-methoxy-benzyl)-methyl-amine] had a pIC50 in experiment [1] of 5.85. This pIC50 lies 0.63 log units lower than the previous one. `CCOc1nc(N(C)c2ccc(OC)cc2)c2ccccc2n1` [Example 182, (2-Ethoxy-quinazolin-4-yl)-(4-methoxy-phenyl)-methyl-amine]: in experiment [1], the negative logarithm of the IC50 (pIC50) was 5.64.

For the molecule `COc1ccc(N(C)c2nc(C)nc3sccc23)cc1` [Example 176, (4-Methoxy-phenyl)-methyl-(2-methyl-thieno[2,3-d]pyrimidin-4-yl)-amine], the pIC50 in experiment [1] was 8.52.

Molecule `COc1ccc(N(C)c2nc(-c3nnn[nH]3)nc3ccccc23)cc1` [Example 247, (4-Methoxy-phenyl)-methyl-[2-(1H-tetrazol-5-yl)-quinazolin-4-yl]-amine] showed a pIC50 in experiment [1] of 7.22. On the same count and under the same terms, in the case of `COc1ccc(N(C)c2nc(C)nc3ccsc23)cc1` [Example 185, (4-Methoxy-phenyl)-methyl-(2-methyl-thieno[3,2-d]pyrimidin-4-yl)-amine] it was 8.15; in that of `COc1ccc(N(C)c2nc(NCCO)nc3c2CCCC3)cc1` [Example 194, 2-{4-[(4-Methoxy-phenyl)-methyl-amino]-5,6,7,8-tetrahydro-quinazolin-2-ylamino}-ethanol], 7.70; in that of `COc1ccc(N(C)c2nc(C)nc3ccc(N)cc23)cc1OC` [Example 223, N^4-(3,4-Dimethoxy-phenyl)-2,N^4-dimethyl-quinazoline-4,6-diamine], 7.19. Turning to `COc1ccc(N(C)c2nc(CC#N)nc3ccccc23)cc1` [Example 206, {4-[(4-Methoxy-phenyl)-methyl-amino]-quinazolin-2-yl}-acetonitrile], the negative logarithm of the IC50 (pIC50) in experiment [1] is 8.70. For `CC(C)Oc1ccc(N(C)c2nc(CN)nc3ccccc23)cc1` [Example 217, (2-Aminomethyl-quinazolin-4-yl)-(4-isopropoxy-phenyl)-methyl-amine], in experiment [1], the negative-log IC50 (pIC50) is 7.74. This pIC50 lies 0.96 log units lower than the previous one.

The molecule `COc1ccc(N(C)c2nc(C)nc3ccc(N)cc23)c(F)c1` [Example 222, N^4-(2-Fluoro-4-methoxy-phenyl)-2,N^4-dimethyl-quinazoline-4,6-diamine] had a pIC50 in experiment [1] of 8.22.

As for `COc1c(Cl)cc(N(C)c2nc(CN)nc3ccccc23)cc1Cl` [Example 254, (2-Aminomethyl-quinazolin-4-yl)-(3,5-dichloro-4-methoxy-phenyl)-methyl-amine bis(hydrochloride)], the negative logarithm of the IC50 (pIC50) in experiment [1] was 5.28. Against the preceding molecule, the pIC50 is 2.94 log units lower. As for `COc1ccc(N(C)c2nc(CCN)nc3ccccc23)cc1` [Example 212, [2-(2-Amino-ethyl)-quinazolin-4-yl]-(4-methoxy-phenyl)-methyl-amine], in experiment [1], the pIC50 is 6.60.

In experiment [1], `COc1ccccc1CN(C)c1nc(Cl)nc2ccccc12` [Example 177, (2-Chloro-quinazolin-4-yl)-(2-methoxy-benzyl)-methyl-amine] had a pIC50 of 6.01. Regarding `CNc1nc2c(c(N(C)c3ccc(OC)cc3)n1)CCCC2` [Example 192, N^4-(4-Methoxy-phenyl)-N^2,N^4-dimethyl-5,6,7,8-tetrahydro-quinazoline-2,4-diamine], in experiment [1], the pIC50 was 7.72. The molecule `COc1ccc(N(C)c2nc(CN)nc3ccccc23)cc1F` [Example 234, (2-Aminomethyl-quinazolin-4-yl)-(3-fluoro-4-methoxy-phenyl)-methyl-amine] showed a pIC50 in experiment [1] of 7.96. `COc1ccc(N(C)c2nc(CCl)nc3ccccc23)cc1Cl` [Example 242, (3-Chloro-4-methoxy-phenyl)-(2-chloromethyl-quinazolin-4-yl)-methyl-amine]: in experiment [1], the pIC50 was 8.00. In experiment [1], `COc1ccc(N(C)c2nncc3ccc(F)cc23)cc1` [Example 195, (7-Fluoro-phthalazin-1-yl)-(4-methoxy-phenyl)-methyl-amine] showed a negative-log IC50 (pIC50) of 5.82. `CNc1ccc(N(C)c2nc(C)nc3ccc(N)cc23)cc1` [Example 225, 2,N^4-Dimethyl-N^4-(4-methylamino-phenyl)-quinazoline-4,6-diamine]: the pIC50 in experiment [1] was 7.43. The same measure, in the same setting: the same measure for `COc1ccc(N(C)c2nc(NCCCCN)nc3ccccc23)cc1` [Example 184, N^2-(4-Amino-butyl)-N^4-(4-methoxy-phenyl)-N^4-methyl-quinazoline-2,4-diamine]: 6.30; for `COc1ccc(N(C)c2nc(NCCCCO)nc3ccccc23)cc1` [Example 181, 4-{4-[(4-Methoxy-phenyl)-methyl-amino]-quinazolin-2-ylamino}-butan-1-ol]: 7.89; for `COC(=O)COc1ccc(N(C)c2nc(C)nc3ccccc23)cc1` [Example 143, {4-[Methyl-(2-methyl-quinazolin-4-yl)-amino]phenoxy}-acetic acid methyl ester]: 5.66. Regarding `CCOc1ccc(N(C)c2nc(Cl)nc3ccccc23)cc1` [Example 97, (2-Chloro-quinazolin-4-yl)-(4-ethoxy-phenyl)-methylamine], the pEC50 in experiment [2] (setting [3]) was 8.30. As for `COc1ccc(N(C)c2nc(N(C)C)nc3ccccc23)cn1` [Example 128, (2-Dimethylamino-quinazolin-4-yl)-(6-methoxy-pyridin-3-yl)-methyl-amine], the pEC50 in experiment [2] (setting [4]) is 7.24. Regarding `Cc1nc(N(C)c2cnccn2)c2ccccc2n1` [Example 134, (2-Methyl-quinazolin-4-yl)-(pyrazin-2-yl)-methyl-amine], the pEC50 in experiment [2] (setting [4]) was under 5.00. Consider `CCOC(=O)c1nc(N(C)c2ccc(OC)cc2)c2ccccc2n1` [Example 117, Ethyl 4-(N-(4-Methoxy-phenyl)-N-methylamino)quinazoline-2-carboxylate], for which the negative logarithm of the EC50 (pEC50) in experiment [2] (setting [4]) is 6.87. Regarding `C[C@H]1CC[C@@H](Nc2nc(Cl)nc3ccccc23)CC1` [Example 130, (2-Chloro-quinazolin-4-yl)-(cis-4-methylcyclohexyl)-amine], the pEC50 in experiment [2] (setting [4]) is under 5.00. Turning to `CN(c1ccc(Oc2ccccc2)cc1)c1nc(Cl)nc2ccccc12` [Example 69, (2-Chloro-quinazolin-4-yl)-(4-phenoxy-phenyl)-methyl-amine], the pEC50 in experiment [2] (setting [3]) was under 6.00.

On to `COc1ccc(N(C)c2nc(N(C)C)nc3ccccc23)cc1` [Example 122, (2-Dimethylamino-quinazolin-4-yl)-(4-methoxy-phenyl)-methyl-amine], for which the pEC50 in experiment [2] (setting [4]) was 7.80. For `COc1ccc(N(C)c2nc(NCCN3CCOCC3)nc3ccccc23)cc1` [Example 14, N^4-(4-Methoxy-phenyl)-N^4-methyl-N^2-(2-morpholin-4-yl-ethyl)-quinazoline-2,4-diamine], the pEC50 in experiment [2] (setting [4]) is 5.87; in experiment [2] (setting [3]), 5.88. For `Cc1nc(N(C)c2ccc(OC(F)F)cc2)c2ccccc2n1` [Example 84, (4-Difluoromethoxy-phenyl)-(2-methyl-quinazolin-4-yl)-methyl-amine], the pEC50 in experiment [2] (setting [4]) was 8.10. For `COc1c(Br)cc(N(C)c2nc(C)nc3ccc([N+](=O)[O-])cc23)cc1Br` [Example 115, (3,5-Dibromo-4-methoxy-phenyl)-(2-methyl-6-nitro-quinazolin-4-yl)-methyl-amine], in experiment [2] (setting [4]), the pEC50 was under 5.00. `COc1ccc(N(C)c2nc(NCCCN(C)C)nc3ccccc23)cc1` [Example 47, N^2-(3-Dimethylamino-propyl)-N^4-(4-methoxy-phenyl)-N^4-methyl-quinazoline-2,4-diamine]: the negative-log EC50 (pEC50) in experiment [2] (setting [3]) is 6.73. `CSc1nc(N(C)NC(=O)c2cccc(C)c2)c2ccccc2n1`: in experiment [2] (48 hr, benzohydrazide table, read-out: T-47D (48 hr) EC50), the negative logarithm of the EC50 (pEC50) is 7.34. For the same molecule, the “T-47D (48 hr) Ratio” value in experiment [2] (48 hr, benzohydrazide table) is 12.7. Take `COc1ccc(N(C)c2nc(C)nc3ccccc23)cc1F` [Example 85, (3-Fluoro-4-methoxy-phenyl)-(2-methyl-quinazolin-4-yl)-methyl-amine]: the pEC50 in experiment [2] (setting [4]) is 8.70. `CCc1ccc(Nc2nc(C)nc3ccccc23)cc1` [Example 81, (4-Ethyl-phenyl)-(2-methyl-quinazolin-4-yl)-amine]: the pEC50 in experiment [2] (setting [4]) was under 5.00. With `CNc1nc(N(C)c2ccc(OC)nc2)c2ccccc2n1` [Example 129, (2-Methylamino-quinazolin-4-yl)-(6-methoxy-pyridin-3-yl)-methyl-amine], the pEC50 in experiment [2] (setting [4]) was 7.57.
